# Results: ChEMBL document CHEMBL1201862, “PubChem BioAssay data set” (2004)
#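 In this assay, cells in 96-well plates receive the compound at five concentrations for 48 hours. Endpoints are linearly interpolated between the surrounding concentrations. GI50 is the concentration that inhibits growth by half.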 Activity calls are given as the source filed them. Rule as the data show it: active = GI50 up to about 1.1 µM and inactive = higher.
# What was measured:
# Assay in all cases: NCI tumour cell line growth inhibition, 48 h
# OVCAR-4 = system: OVCAR-4
# SN12C = system: SN12C
# UO-31 = system: UO-31
# HOP-92 = system: HOP-92
# NCI-H226 = system: NCI-H226
# K562 = system: K562
# HL-60 = system: HL-60
# CCRF-CEM = system: CCRF-CEM
# SF-539 = system: SF-539
# MCF7 = system: MCF7
# M14 = system: M14
# U-251 = system: U-251
# SW-620 = system: SW-620
# SNB-19 = system: SNB-19
# HCT-116 = system: HCT-116
# SK-MEL-2 = system: SK-MEL-2
# Malme-3M = system: Malme-3M
# EKVX = system: EKVX
# SK-OV-3 = system: SK-OV-3
# CAKI-1 = system: CAKI-1
SMILES,GI50 (OVCAR-4),GI50 (SN12C),GI50 (UO-31),GI50 (HOP-92),GI50 (NCI-H226),GI50 (K562),GI50 (HL-60),GI50 (CCRF-CEM),GI50 (SF-539),GI50 (MCF7),GI50 (M14),GI50 (U-251),GI50 (SW-620),GI50 (SNB-19),GI50 (HCT-116),GI50 (SK-MEL-2),GI50 (Malme-3M),GI50 (EKVX),GI50 (SK-OV-3),GI50 (CAKI-1)
COc1cc2cc(C(=O)N3CC(COS(C)(=O)=O)c4ccc(O)cc43)[nH]c2c(OC)c1OC (centres undefined),< 0.0001 µM (active),< 0.0001 µM (active),< 0.0001 µM (active),< 0.0001 µM (active),0.000109 µM (active),< 0.0001 µM (active),< 0.0001 µM (active),< 0.01 µM (active),< 0.0001 µM (active),< 0.0001 µM (active),< 0.0001 µM (active),< 0.0001 µM (active),< 0.0001 µM (active),< 0.0001 µM (active),< 0.0001 µM (active),< 0.0001 µM (active),< 0.0001 µM (active),0.00082 µM (active),–,–
O=C(N/N=C\c1c(O)ccc2ccccc12)c1ccncc1,0.237 µM (active),0.231 µM (active),0.356 µM (active),1.31 µM (inactive),0.628 µM (active),0.0553 µM (active),0.518 µM (active),0.0887 µM (active),0.675 µM (active),3.09 µM (inactive),0.474 µM (active),0.29 µM (active),0.769 µM (active),1.21 µM (inactive),0.191 µM (active),0.257 µM (active),–,–,0.693 µM (active),1 µM (active)
O=c1[nH]c(=O)n(C2CC(O)C(CO)O2)c2nc3ccc4ccccc4c3nc12 (centres undefined),67.9 µM (inactive),51.2 µM (inactive),> 100 µM (inactive),25.6 µM (inactive),17.8 µM (inactive),45.2 µM (inactive),–,34.2 µM (inactive),92.9 µM (inactive),46.3 µM (inactive),> 100 µM (inactive),33.7 µM (inactive),99.8 µM (inactive),30.5 µM (inactive),> 100 µM (inactive),95.5 µM (inactive),> 100 µM (inactive),72.4 µM (inactive),> 100 µM (inactive),> 100 µM (inactive)
CC12CCC3c4cc(Br)c(O)c(Br)c4CCC3C1CCC2O (centres undefined),–,19 µM (inactive),15.8 µM (inactive),> 10 µM (inactive),16.7 µM (inactive),6.18 µM (inactive),14.8 µM (inactive),24.3 µM (inactive),18.5 µM (inactive),27.2 µM (inactive),32.7 µM (inactive),15 µM (inactive),14.2 µM (inactive),–,19.1 µM (inactive),19.1 µM (inactive),14.3 µM (inactive),15.2 µM (inactive),23.5 µM (inactive),15.6 µM (inactive)
NC(=O)C(=CN1CC(=O)NC1=S)C(N)=O,> 100 µM (inactive),> 100 µM (inactive),> 100 µM (inactive),> 100 µM (inactive),> 100 µM (inactive),–,> 100 µM (inactive),–,> 100 µM (inactive),> 100 µM (inactive),> 100 µM (inactive),> 100 µM (inactive),> 100 µM (inactive),> 100 µM (inactive),> 100 µM (inactive),> 100 µM (inactive),–,> 100 µM (inactive),> 100 µM (inactive),> 100 µM (inactive)
OC1C#CCSCC#C/C=C\1 (centres undefined),> 100 µM (inactive),94 µM (inactive),> 100 µM (inactive),62.2 µM (inactive),> 100 µM (inactive),17.9 µM (inactive),23.6 µM (inactive),27 µM (inactive),> 100 µM (inactive),53.3 µM (inactive),> 100 µM (inactive),> 100 µM (inactive),18.4 µM (inactive),> 100 µM (inactive),62.1 µM (inactive),> 100 µM (inactive),47.1 µM (inactive),> 100 µM (inactive),> 100 µM (inactive),–
CC(C)/C(Cl)=N\OC(=O)NNc1ccccc1,7.48 µM (inactive),> 48.1 µM (inactive),0.0178 µM (active),16.3 µM (inactive),27 µM (inactive),< 0.01 µM (active),–,< 0.0333 µM (active),29.3 µM (inactive),8.93 µM (inactive),3.47 µM (inactive),37.6 µM (inactive),6.92 µM (inactive),73.3 µM (inactive),1.03 µM (active),> 32.1 µM (inactive),15.8 µM (inactive),15.3 µM (inactive),> 100 µM (inactive),14.8 µM (inactive)
CSc1c(C(=O)Nc2ccc(Cl)cc2)c(N)nn1-c1ccccc1,–,> 100 µM (inactive),> 44.8 µM (inactive),> 100 µM (inactive),> 100 µM (inactive),> 100 µM (inactive),> 100 µM (inactive),> 100 µM (inactive),> 100 µM (inactive),> 100 µM (inactive),> 100 µM (inactive),61.5 µM (inactive),> 100 µM (inactive),> 100 µM (inactive),> 100 µM (inactive),> 100 µM (inactive),> 100 µM (inactive),> 100 µM (inactive),19.6 µM (inactive),> 100 µM (inactive)
CCOC(=O)CCCn1cc(C(=O)OC)nn1,> 100 µM (inactive),> 100 µM (inactive),> 100 µM (inactive),> 100 µM (inactive),> 100 µM (inactive),–,–,> 100 µM (inactive),> 100 µM (inactive),> 100 µM (inactive),–,> 100 µM (inactive),> 100 µM (inactive),> 100 µM (inactive),> 100 µM (inactive),> 100 µM (inactive),> 100 µM (inactive),> 100 µM (inactive),–,> 100 µM (inactive)
COc1cccc2c1OC1(C=C2)Oc2ccccc2C(=O)N1C (centres undefined),45.3 µM (inactive),22.5 µM (inactive),19.8 µM (inactive),35.2 µM (inactive),20.9 µM (inactive),17.5 µM (inactive),19.3 µM (inactive),12.2 µM (inactive),–,37.8 µM (inactive),40.8 µM (inactive),39.8 µM (inactive),42.7 µM (inactive),56.2 µM (inactive),37.6 µM (inactive),54.5 µM (inactive),–,18.4 µM (inactive),25.9 µM (inactive),8.18 µM (inactive)
O=S1(=O)CCN(Cc2ccccc2)/C1=N\S(=O)(=O)c1ccc(Cl)cc1,18.8 µM (inactive),19.2 µM (inactive),17.5 µM (inactive),18.6 µM (inactive),17.8 µM (inactive),35.6 µM (inactive),22.8 µM (inactive),24.9 µM (inactive),18.7 µM (inactive),22.8 µM (inactive),17.3 µM (inactive),18 µM (inactive),19.1 µM (inactive),57 µM (inactive),18.5 µM (inactive),23.4 µM (inactive),–,15.1 µM (inactive),47.4 µM (inactive),19.1 µM (inactive)
CC1=CC(=O)CC(C)(C)C1/C=C/C(C)=C/C=C/C(C)=C/C=C/C=C(C)/C=C/C=C(C)/C=C/C1=C(C)CC(O)CC1(C)C (centres undefined),37.9 µM (inactive),–,44.8 µM (inactive),27.3 µM (inactive),> 100 µM (inactive),0.745 µM (active),18.6 µM (inactive),24.9 µM (inactive),47.2 µM (inactive),16.3 µM (inactive),33 µM (inactive),37.8 µM (inactive),15.7 µM (inactive),–,18.4 µM (inactive),> 100 µM (inactive),–,57.3 µM (inactive),> 100 µM (inactive),39.3 µM (inactive)
CCCc1nc2c(n1CC)C(=O)c1ccccc1C2=O,32.1 µM (inactive),30.5 µM (inactive),–,> 10 µM (inactive),56 µM (inactive),31.1 µM (inactive),44.4 µM (inactive),24.5 µM (inactive),63.5 µM (inactive),51.1 µM (inactive),33.2 µM (inactive),59.3 µM (inactive),39.1 µM (inactive),86.9 µM (inactive),39.3 µM (inactive),–,22.2 µM (inactive),–,21.7 µM (inactive),–
O=C(Nn1c(-c2ccccc2)nc2ccccc2c1=O)c1ccc(Cl)cc1,56.5 µM (inactive),> 100 µM (inactive),65.6 µM (inactive),75.3 µM (inactive),> 100 µM (inactive),> 100 µM (inactive),> 100 µM (inactive),> 100 µM (inactive),> 100 µM (inactive),> 100 µM (inactive),> 100 µM (inactive),84.3 µM (inactive),> 100 µM (inactive),> 100 µM (inactive),> 100 µM (inactive),–,> 100 µM (inactive),> 100 µM (inactive),> 100 µM (inactive),–
O=C(O)CN1CCN(CC(=O)O)CCN(CC(=O)O)CCN(CC(=O)O)CC1 [TETRAXETAN],> 100 µM (inactive),> 100 µM (inactive),> 100 µM (inactive),> 100 µM (inactive),> 100 µM (inactive),> 100 µM (inactive),> 100 µM (inactive),> 100 µM (inactive),> 100 µM (inactive),> 100 µM (inactive),> 100 µM (inactive),> 100 µM (inactive),> 100 µM (inactive),> 100 µM (inactive),> 100 µM (inactive),> 100 µM (inactive),–,> 100 µM (inactive),–,> 100 µM (inactive)
